Experimental data reported in publication PMC9382192, “Combined treatment with epigenetic agents enhances anti-tumor activity of MAGE-D4 peptide-specific T cells by upregulating the MAGE-D4 expression in glioma” (Frontiers in Oncology, 2022).

Tests used:
[1] = test system: U87 cell-derived tumors; assay: In vivo xenograft tumor model; set-up: species or system BALB/C nude female mice
Protocol: (§1) Eighteen BALB/C nude female mice aged 4 weeks were provided by the Guangxi Experimental Animal Center. The mice were placed in a light-controlled room at 24 ± 1 °C (light: 7:00–19:00 h, dark: 19:00–7:00 h) and fed under specific pathogen-free conditions. All protocols followed the guidelines of the National Research Council for the Care and Use of Laboratory Animals and were approved by the Animal Ethics Committee of Guangxi Medical University. To develop a xenograft model, 4 × 10^6 U87 cells were inoculated into the flanks of the mice subcutaneously. Two weeks later, mice simultaneously received intraperitoneal peritumorally injections of TSA (0.5 mg/kg) and 1 × 10^7 peptides loaded on CD8^+ T cells, respectively. Every […], tumor volumes were measured simultaneously with a caliper. Mice were sacrificed by euthanasia when visibly ill. Mice injected with negative peptide-induced CTLs and CTLs without peptides were included as controls. The tumor volumes were calculated using the following formula: tumor volume = [(width2 × length)/2].

[2] = test system: U87 glioma tissues; assay: CD8 immunohistochemistry of xenograft tissue; type: in vivo, BALB/C nude female mice; conditions: MAGE-D4-specific T cells in TSA-treated U87 glioma tissues, IHC
Protocol: as §1, with “length)/2]. Immunochemistry was conducted to detect expressions of CD8 on tissue sections. […] Integrated optical density (IOD) was measured by image-Pro Plus software (version 6.0, Media Cybernetics, MD, USA) for images of five randomly selected regions from a slice. The results were expressed as average optical density (AOD = IOD/area).” for “length)/2].”

[3] = test system: U87; assay: Granzyme A and perforin ELISA, T cells with U87; type: cell-based, human; conditions: T cells stimulated by TSA-treated U87, E:T 50:1, 4 h
Protocol: The human glioma cell lines (U87-MG and U251) were obtained from the Cell Bank of Type Culture Collection of the Chinese Academy of Science (Shanghai, China). […] A3656), valproic acid (VPA, CAS No. 99-66-1), and trichostatin A (TSA, CAS No. 58880-19-6) were purchased from Sigma-Aldrich Corporation (St. Louis, MO, USA). DAC and TSA were dissolved in DMSO to a concentration of 10 mM. Aliquots were stored at −80°C and diluted with media before being used. […] Four hours later, suspended cells were collected for CD107a flow cytometry, meanwhile, the supernatant was collected and analyzed with granzyme A and perforin ELISA kit (Cloud-Clone Corporation, Wuhan, China) at 450 nm, and the LDH kit (Promega, USA) at 490 nm. The percentage of specific lysis was calculated using the following formula: [(experimental release − spontaneous release)/(maximum release − spontaneous release)] × 100. […] Then, the cytotoxicity assay was measured and calculated as mentioned above.

[4] = test system: IL-2; assay: IL-2 ELISA of DC/T-cell co-culture supernatant; type: cell-based, human; conditions: 72 h co-culture supernatant, versus negative control peptide
Protocol: Production of cytokines in the supernatants was determined using commercially available ELISA kits (Cloud-Clone Corporation, Wuhan, China) according to the protocol of the manufacturer. Approximately 50 μl of supernatant and different concentration standards were added and mixed with 100 μl of horseradish peroxidase (HRP) labeled detection antibody against a 96-well plate, respectively, except for the blank control. After incubation at 37°C for 60 min, we washed the plate five times. Add substrate A and substrate B 50 μl respectively, incubate for 15min in a 37°C incubator in dark. Then, 50 μl of stop solution was added and a 450 nm absorbance value (OD value) was measured within 15 min. The regression equation of the standard curve is calculated according to the concentration of the standard substance and the OD value, and the corresponding sample concentration is calculated on the basis of the regression equation.

[5] = test system: IFN-γ; assay: IFN-γ ELISPOT; type: cell-based, human; conditions: 1 × 10^6 T cells/well stimulated by peptide-pulsed DCs, 20 h
Protocol: The number of T cells secreting IFN-γ was measured by ELISPOT using Human IFN-γ precoated ELISPOT kit (Dakewe, Beijing, China). Briefly, RPMI 1640 complete medium was added for 5–10 min to activate the pre-coated plate. T cells (1 × 10^6/well) stimulated by peptide-pulsed DCs were added to each well and incubated in a 37°C 5% CO2 incubator for 20 h. After lysis in cold water, the biotin-labeled antibody was added and incubated at 37°C for 1 h, then the enzyme-labeled avidin was added and incubated at 37°C for 1 h. The spots present in each well were scanned using the CTL ELISPOT analyzer and counted using the ImmunoSpot Professional Software.

Molecule	tumor volume ([1]; U87 pre-treated with TSA versus U87, both inoculated with P8-specific T cells, TSA 0.5 mg/kg)	tumor growth ([1]; group treated with TSA versus group treated without TSA)	CD8+ T-cell infiltration in tumor tissue [2]	granzyme A and perforin secreted by T cells [3]	tumor volume ([1]; U87 xenograft, 1 × 10^7 peptide-specific CD8+ T cells, compared with DC + Tc and NC-DC + Tc groups)	IL-2 secreted by DC-stimulated T cells [4]	number of IFN-γ secreting T cells (ELISPOT) [5]
CC(/C=C/C(=O)NO)=C\[C@@H](C)C(=O)c1ccc(N(C)C)cc1 [TSA, trichostatin A]	smaller	slower	highest degree	more granzyme A and perforin			
CLPPPNVIL [Peptide P8]				the most granzyme A and perforin	significantly reduced	higher IL-2	more than that in others
